Test results published in the supplement of paper PMC10307832.

Columns and labels:
Test in all cases: relative viability (nuclei count vs DMSO), 5 days (fraction); higher = more cells survive
Midostaurin + OSI-027 = compound: CO[C@@H]1[C@H](N(C)C(=O)c2ccccc2)C[C@H]2O[C@]1(C)n1c3ccccc3c3c4c(c5c6ccccc6n2c5c31)C(=O)NC4 [Midostaurin] + COc1cccc2cc(-c3nc([C@H]4CC[C@H](C(=O)O)CC4)n4ncnc(N)c34)[nH]c12 [OSI-027] (partner 0.5 µM)
Method in brief: (§1)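 Medians of duplicate plates are given as relative viability. That measure is the nuclei count in treated wells divided by the count in vehicle wells. Counts were taken on 4× images of lung cancer cell lines in 1536-well plates, 5 days after pin-tool dosing the day after seeding with one drug alone or a fixed anchor-drug dose plus five library-drug doses (not always all listed) in √10 steps.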

Midostaurin + Crizotinib = compound: CO[C@@H]1[C@H](N(C)C(=O)c2ccccc2)C[C@H]2O[C@]1(C)n1c3ccccc3c3c4c(c5c6ccccc6n2c5c31)C(=O)NC4 [Midostaurin] + C[C@@H](Oc1cc(-c2cnn(C3CCNCC3)c2)cnc1N)c1c(Cl)ccc(F)c1Cl [Crizotinib] (partner 1 µM)
Method in brief: as §1

Midostaurin + Dasatinib = compound: CO[C@@H]1[C@H](N(C)C(=O)c2ccccc2)C[C@H]2O[C@]1(C)n1c3ccccc3c3c4c(c5c6ccccc6n2c5c31)C(=O)NC4 [Midostaurin] + Cc1nc(Nc2ncc(C(=O)Nc3c(C)cccc3Cl)s2)cc(N2CCN(CCO)CC2)n1 [Dasatinib] (partner 0.075 µM)
Method in brief: as §1

Midostaurin + Decitabine = compound: CO[C@@H]1[C@H](N(C)C(=O)c2ccccc2)C[C@H]2O[C@]1(C)n1c3ccccc3c3c4c(c5c6ccccc6n2c5c31)C(=O)NC4 [Midostaurin] + Nc1ncn([C@H]2C[C@H](O)[C@@H](CO)O2)c(=O)n1 [Decitabine] (partner 2 µM)
Method in brief: as §1

[1] = compound: COc1cc(-c2nn([C@H]3CC[C@H](N4CCN(C(C)=O)CC4)CC3)c3ncnc(N)c23)ccc1NC(=O)c1cc2ccccc2n1C + CC(=O)Nc1cccc(-n2c(=O)n(C3CC3)c(=O)c3c(Nc4ccc(I)cc4F)n(C)c(=O)c(C)c32)c1 [Trametinib] (partner 0.02 µM)
Method in brief: as §1

Cell Line | relative viability (Midostaurin + OSI-027; first compound 0.01 µM) | relative viability (Midostaurin + OSI-027; first compound 0.03162 µM) | relative viability (Midostaurin + OSI-027; first compound 0.1 µM) | relative viability (Midostaurin + OSI-027; first compound 0.3162 µM) | relative viability (Midostaurin + Crizotinib; first compound 0.01 µM) | relative viability (Midostaurin + Crizotinib; first compound 0.03162 µM) | relative viability (Midostaurin + Crizotinib; first compound 0.1 µM) | relative viability (Midostaurin + Crizotinib; first compound 0.3162 µM) | relative viability (Midostaurin + Dasatinib; first compound 0.01 µM) | relative viability (Midostaurin + Dasatinib; first compound 0.03162 µM) | relative viability (Midostaurin + Dasatinib; first compound 0.1 µM) | relative viability (Midostaurin + Dasatinib; first compound 0.3162 µM) | relative viability (Midostaurin + Decitabine; first compound 0.01 µM) | relative viability (Midostaurin + Decitabine; first compound 0.03162 µM) | relative viability (Midostaurin + Decitabine; first compound 0.1 µM) | relative viability (Midostaurin + Decitabine; first compound 0.3162 µM) | relative viability ([1]; first compound 0.0128 µM) | relative viability ([1]; first compound 0.04048 µM) | relative viability ([1]; first compound 0.128 µM) | relative viability ([1]; first compound 1.28 µM)
LC-2-ad | 0.792 | 0.791 | 0.898 | 0.847 | 0.469 | 0.428 | 0.485 | 0.483 | 0.476 | 0.582 | 0.579 | 0.537 | 0.672 | 0.751 | 0.699 | 0.763 | 0.956 | 0.536 | 0.895 | 0.895
NCI-H1793 | 0.319 | 0.287 | 0.263 | 0.216 | – | – | – | – | 0.481 | 0.38 | 0.345 | 0.362 | 0.484 | 0.551 | 0.493 | 0.359 | 0.446 | 0.24 | 0.469 | 0.359
NCI-H2342 | 0.667 | 0.619 | 0.658 | 0.74 | – | – | – | – | 0.332 | 0.305 | 0.319 | 0.327 | 0.73 | 0.787 | 0.716 | 0.827 | 0.92 | 0.766 | 0.886 | 0.745
NCI-H1299 | – | – | – | – | 0.929 | 0.914 | 0.941 | 0.86 | – | – | – | – | – | – | – | – | – | – | – | –
SW 900 | 0.541 | 0.484 | 0.75 | 0.478 | – | – | – | – | 0.7 | 0.684 | 0.538 | 0.275 | 0.407 | 0.491 | 0.439 | 0.433 | 1.05 | 0.82 | 0.778 | 0.432
NCI-H1648 | 0.285 | 0.221 | 0.275 | 0.233 | – | – | – | – | – | – | – | – | 0.499 | – | – | 0.446 | 0.478 | 0.311 | 0.386 | 0.293
NCI-H522 | 0.712 | 0.729 | 0.668 | 0.766 | – | – | – | – | 0.981 | 0.995 | 0.789 | 1.04 | 0.584 | 0.638 | 0.822 | 0.525 | 0.77 | 0.514 | 0.723 | 0.73
NCI-H1395 | 0.591 | 0.675 | 0.615 | 0.763 | – | – | – | – | 0.435 | 0.38 | 0.404 | 0.403 | 0.681 | 0.81 | 0.712 | 0.702 | 1.02 | 0.945 | 0.967 | 0.667
A549 | – | – | – | – | 0.796 | 0.665 | 0.589 | 0.26 | – | – | – | – | 0.255 | 0.221 | 0.216 | 0.222 | – | – | – | –
NCI-H1563 | 0.766 | 0.727 | 0.72 | 0.745 | 0.817 | 0.872 | 0.85 | 0.834 | 0.402 | 0.469 | 0.43 | 0.465 | – | – | – | – | – | – | – | –
ABC-1 | 0.488 | 0.536 | 0.574 | 0.521 | 0.981 | 1.28 | 1.12 | 0.582 | 0.512 | 0.668 | 0.451 | 0.504 | 1.02 | 1.14 | 0.942 | 1.26 | – | – | – | –
